{
  "source": "patent US9371365B2",
  "about": "“Modified compstatin with peptide backbone and C-terminal modifications” (The Trustees of the University of Pennsylvania, priority 2009, dated 2016)",
  "key": {"[1]": {"system": "classical pathway of complement", "assay": "Inhibition of classical pathway complement activation, ELISA in human serum", "format": "biochemical", "protocol": "The ability of the compstatin analogs to inhibit the activation of the classical pathway of complement was assessed by ELISA (Mallik et al., 2005, J Med Chem 48:274-86). In brief, complement was activated in human serum using an antigen-antibody complex in the presence or absence of compstatin analogs, and the deposition of C3 fragments on the plate surface was detected using an HRP-conjugated polyclonal anti-C3 antibody. […] The percent inhibition was plotted against the peptide concentration, and the resulting data set was fitted to the logistic dose-response function using Origin 7.0 software. IC50 values were obtained from the fitted parameters that produced the lowest χ^2 value. Each analog was assayed at least three to seven times.\nThe ability of the compstatin analogs to inhibit the activation of the classical pathway of complement was assessed by ELISA as described in Example 1. Each conjugate was assayed at least three times."}, "[2]": {"biological_target": "T1, C3 (Homo sapiens, UniProt P01024)", "T1 construct": "C3 was purified from fresh human plasma; from tissue; host or cells: fresh human plasma (blood bank of the Hospital of the University of Pennsylvania)", "T1 sequence (P01024 23-667 limits assumed)": "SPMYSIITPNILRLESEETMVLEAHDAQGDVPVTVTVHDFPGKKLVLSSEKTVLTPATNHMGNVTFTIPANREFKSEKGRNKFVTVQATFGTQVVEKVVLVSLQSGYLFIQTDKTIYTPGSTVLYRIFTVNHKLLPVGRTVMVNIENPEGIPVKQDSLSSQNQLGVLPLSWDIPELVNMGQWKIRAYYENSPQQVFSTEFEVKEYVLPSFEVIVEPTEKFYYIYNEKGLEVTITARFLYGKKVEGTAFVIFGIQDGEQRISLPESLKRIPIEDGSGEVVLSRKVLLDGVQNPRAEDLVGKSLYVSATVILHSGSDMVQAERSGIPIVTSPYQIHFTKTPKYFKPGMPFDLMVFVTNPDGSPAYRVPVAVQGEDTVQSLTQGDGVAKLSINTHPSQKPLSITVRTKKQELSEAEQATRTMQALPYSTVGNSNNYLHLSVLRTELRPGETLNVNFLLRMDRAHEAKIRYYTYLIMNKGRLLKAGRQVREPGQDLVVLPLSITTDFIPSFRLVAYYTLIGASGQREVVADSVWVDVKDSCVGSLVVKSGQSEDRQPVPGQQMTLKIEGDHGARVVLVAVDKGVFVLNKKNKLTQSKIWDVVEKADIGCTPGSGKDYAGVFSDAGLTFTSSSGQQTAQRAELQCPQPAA", "T1 sequence (P01024 672-1663 limits assumed)": "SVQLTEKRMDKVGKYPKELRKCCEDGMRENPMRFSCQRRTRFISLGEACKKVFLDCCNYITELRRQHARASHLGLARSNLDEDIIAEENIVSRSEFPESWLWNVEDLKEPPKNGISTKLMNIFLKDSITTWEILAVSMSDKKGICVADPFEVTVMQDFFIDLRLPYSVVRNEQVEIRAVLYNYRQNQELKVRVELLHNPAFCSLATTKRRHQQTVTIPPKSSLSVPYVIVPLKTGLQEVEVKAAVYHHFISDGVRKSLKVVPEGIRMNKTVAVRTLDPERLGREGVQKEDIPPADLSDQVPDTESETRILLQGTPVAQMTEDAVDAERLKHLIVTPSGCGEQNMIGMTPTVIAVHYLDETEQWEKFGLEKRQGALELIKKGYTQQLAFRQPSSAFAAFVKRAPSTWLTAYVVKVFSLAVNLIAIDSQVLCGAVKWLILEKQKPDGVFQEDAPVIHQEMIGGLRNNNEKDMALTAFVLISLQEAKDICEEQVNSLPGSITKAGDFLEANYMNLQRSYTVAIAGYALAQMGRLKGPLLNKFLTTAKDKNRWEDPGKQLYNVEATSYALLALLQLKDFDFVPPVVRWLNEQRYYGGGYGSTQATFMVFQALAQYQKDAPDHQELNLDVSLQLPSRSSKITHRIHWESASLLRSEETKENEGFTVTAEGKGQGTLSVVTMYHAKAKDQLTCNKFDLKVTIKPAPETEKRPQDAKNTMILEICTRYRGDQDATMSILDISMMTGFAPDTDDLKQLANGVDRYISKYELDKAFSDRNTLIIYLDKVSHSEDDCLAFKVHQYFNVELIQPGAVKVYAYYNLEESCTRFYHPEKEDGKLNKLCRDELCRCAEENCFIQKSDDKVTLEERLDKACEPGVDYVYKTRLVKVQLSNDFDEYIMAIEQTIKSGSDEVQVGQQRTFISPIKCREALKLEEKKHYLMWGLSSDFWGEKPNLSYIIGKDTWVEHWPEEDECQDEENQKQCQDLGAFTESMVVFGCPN", "assay": "ITC analysis of binding to C3", "protocol": "C3 was purified from fresh human plasma obtained from the blood bank of the Hospital of the University of Pennsylvania. In brief, the plasma was fractionated with 15% (w/v) PEG 3350, and the pellet was resuspended in 20 mM phosphate buffer, pH 7.8, and then subjected to anion-exchange chromatography on a DEAE-HR 40 column (50×5 cm; Millipore Inc., Billerica, Mass.) with the same buffer. Proteins were eluted with 6 L of a linear gradient (15-70%) of 20 mM phosphate buffer, pH 7.8, containing 500 mM NaCl. C3 was further purified on a size-exclusion Superdex 200 26/60 column (Amersham Biosciences) and a Mono S column (Amersham Biosciences) to separate C3 from C3(H2O).\nAll titrations were performed in PBS (10 mM phosphate buffer with 150 mM NaCl, pH 7.4) at 25° C. using multiple peptide injections of 2-7 μL each. The raw isotherms were corrected for the heats of dilution by subtracting the isotherms representing peptide injections into the buffer. The resulting isotherms were fitted to a single site of sites models using Origin 7.0 software, and the model that produced the lowest χ^2 value was deemed to be appropriate for the respective data set. The Gibbs free energy was calculated as ΔG=ΔH−TΔS. Each experiment was repeated at least twice."}},
  "note": "Read-outs that look alike come from different tables or passages of the source.",
  "data": [
    {"smiles": "CC[C@H](C)[C@H](NC(=O)[C@@H]1CSSC[C@H](NC(=O)[C@@H](NC(C)=O)[C@@H](C)CC)C(=O)N[C@@H](C(C)C)C(=O)N[C@@H](Cc2cn(C)c3ccccc23)C(=O)N[C@@H](CCC(N)=O)C(=O)N[C@@H](CC(=O)O)C(=O)N[C@@H](Cc2c[nH]c3ccccc23)C(=O)N(C)CC(=O)N[C@@H](C)C(=O)N[C@@H](Cc2c[nH]cn2)C(=O)N[C@@H](CCCNC(=N)N)C(=O)N1)C(N)=O", "note": "[Peptide 17, Ac−Ic[CV(^1−MeW)QDW(^N−MeG)AHRC]I-NH2]", "values": [
      {"measurement": "IC50", "setting": "[1]; Table 1-2, read-out: IC50", "value": 92, "unit": "nM"},
      {"measurement": "IC50", "setting": "[1]; classical pathway, human serum, Table 2-1, read-out: IC50 (nM, CP)", "value": 92, "unit": "nM"},
      {"measurement": "IC50", "setting": "[1]; exemplary analogs table, read-out: IC50", "value": 92, "unit": "nM"},
      {"measurement": "rP", "setting": "[1]; relative potency compared to peptide 14", "value": 2.2},
      {"measurement": "IC50 (fold change)", "setting": "[1]; relative to peptide 17", "value": 1},
      {"measurement": "ΔH", "setting": "[2]; ITC", "value": -14.1, "unit": "kcal/mol"},
      {"measurement": "ΔH (text)", "setting": "[2]; ITC", "value": -14.1, "unit": "kcal/mol"},
      {"measurement": "−TΔS", "setting": "[2]; ITC", "value": 2.9, "unit": "kcal/mol"},
      {"measurement": "−TΔS (text)", "setting": "[2]; ITC", "value": 2.9, "unit": "kcal/mol"},
      {"measurement": "ΔG", "setting": "[2]; ITC, ΔG=ΔH−TΔS", "value": -11.2, "unit": "kcal/mol"},
      {"measurement": "rKD ITC", "setting": "[2]; relative to peptide 14", "value": 2.4},
      {"measurement": "ΔΔG", "setting": "[2]; relative to peptide 14", "value": -0.5, "unit": "kcal/mol"},
      {"measurement": "ΔΔH", "setting": "[2]; relative to peptide 14", "value": 3.5, "unit": "kcal/mol"},
      {"measurement": "−TΔΔS", "setting": "[2]; relative to peptide 14", "value": -4.1, "unit": "kcal/mol"}
    ]}
  ]
}
